Source: patent US11479551B2, “MTA-cooperative PRMT5 inhibitors” (Mirati Therapeutics, Inc., priority 2019, dated 2022)
Where two headings read alike, the source gives them in different places.

Molecular target: PRMT5/MEP50 complex (Homo sapiens (Human), UniProt O14744)
Test: PRMT5:MEP50 FlashPlate Assay (histone H4 peptide substrate, plus and minus MTA)
Format: biochemical
Protocol: The PRMT5 inhibitory activity of compounds of the present invention was determined using either a PRMT5:MEP50 FlashPlate Assay (Reaction Biology Corporation) or a PRMT5:MEP50 HotSpot Assay (Reaction Biology Corporation).
1. PRMT5:MEP50 FlashPlate Assay

[1] = IC50 + 2 μM MTA (nM), in the presence of 2 μM MTA
[2] = in the absence of MTA, read-out: IC50
[3] = read-out: IC50 + 2 μM MTA, in the presence of 2 μM MTA

Chain of PRMT5/MEP50 complex (O14744 2-637): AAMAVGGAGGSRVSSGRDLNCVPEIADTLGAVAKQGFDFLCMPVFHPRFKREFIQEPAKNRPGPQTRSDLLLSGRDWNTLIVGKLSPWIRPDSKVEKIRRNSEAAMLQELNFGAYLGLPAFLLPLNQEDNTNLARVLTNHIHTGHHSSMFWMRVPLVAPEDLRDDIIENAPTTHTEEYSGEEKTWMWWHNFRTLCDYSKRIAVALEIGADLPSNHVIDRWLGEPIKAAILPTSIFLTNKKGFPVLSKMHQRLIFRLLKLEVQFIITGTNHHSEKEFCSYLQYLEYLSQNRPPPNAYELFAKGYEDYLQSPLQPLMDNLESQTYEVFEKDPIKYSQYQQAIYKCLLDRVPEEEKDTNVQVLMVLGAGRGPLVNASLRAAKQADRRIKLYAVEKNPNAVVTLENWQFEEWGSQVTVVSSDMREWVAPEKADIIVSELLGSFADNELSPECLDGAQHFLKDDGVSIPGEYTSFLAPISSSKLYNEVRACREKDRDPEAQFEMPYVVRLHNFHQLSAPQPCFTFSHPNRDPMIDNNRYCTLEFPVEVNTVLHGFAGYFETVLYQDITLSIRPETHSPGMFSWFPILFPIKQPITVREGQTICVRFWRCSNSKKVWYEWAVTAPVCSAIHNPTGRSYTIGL
Chain of PRMT5/MEP50 complex (Q9BQA1 2-342 partner): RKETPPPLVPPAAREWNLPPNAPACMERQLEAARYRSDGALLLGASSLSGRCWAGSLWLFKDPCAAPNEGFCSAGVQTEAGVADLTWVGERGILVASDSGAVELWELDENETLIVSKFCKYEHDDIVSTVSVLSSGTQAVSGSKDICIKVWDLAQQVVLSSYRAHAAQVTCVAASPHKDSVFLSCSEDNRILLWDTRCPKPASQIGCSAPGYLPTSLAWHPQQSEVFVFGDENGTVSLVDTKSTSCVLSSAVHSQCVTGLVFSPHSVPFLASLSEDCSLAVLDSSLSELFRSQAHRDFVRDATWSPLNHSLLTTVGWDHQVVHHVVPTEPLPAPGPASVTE

IC50 [1] [nM]	IC50 [2] [nM]	IC50 [3] [nM]	Compound
7700	85200	–	Cn1cncc1-c1ccc2c(=O)[nH]nc(CN)c2c1 [Example 3-30, 4-(aminomethyl)-6-(1-methyl-1H-imidazol-5-yl)phthalazin-1(2H)-one]
80000	> 100000	–	NCc1n[nH]c(=O)c2ccc(-c3cnc[nH]3)cc12 [Example 3-31, 4-(aminomethyl)-6-(1H-imidazol-5-yl)phthalazin-1(2H)-one]
–	11600	710	NCc1n[nH]c(=O)c2ccc(-c3cnn(CCO)c3)cc12 [Example 3-32, 4-(aminomethyl)-6-(1-(2-hydroxyethyl)-1H-pyrazol-4-yl)phthalazin-1(2H)-one]
61	1570	–	NCc1n[nH]c(=O)c2ccc(-c3cncc(C4CC4)c3)cc12 [Example 3-33, 4-(aminomethyl)-6-(5-cyclopropylpyridin-3-yl)phthalazin-1(2H)-one]
73	2040	–	CCCc1cncc(-c2ccc3c(=O)[nH]nc(CN)c3c2)c1 [Example 3-34, 4-(aminomethyl)-6-(5-propylpyridin-3-yl)phthalazin-1(2H)-one]
59	1530	–	NCc1n[nH]c(=O)c2ccc(-c3cncc(CC4CC4)c3)cc12 [Example 3-35, 4-(aminomethyl)-6-(5-(cyclopropylmethyl)pyridin-3-yl)phthalazin-1(2H)-one]
450	9130	–	NCc1n[nH]c(=O)c2ccc(-c3cncc(C(F)F)c3)cc12 [Example 3-36, 4-(aminomethyl)-6-(5-(difluoromethyl)pyridin-3-yl)phthalazin-1(2H)-one]
3200	72100	–	N#Cc1cncc(-c2ccc3c(=O)[nH]nc(CN)c3c2)c1 [Example 3-37, 5-(4-(aminomethyl)-1-oxo-1,2-dihydrophthalazin-6-yl)nicotinonitrile]
–	4940	370	N#Cc1cncc(-c2ccc3c(=O)[nH]nc(CN)c3c2)c1F [Example 3-38]
920	24300	–	CC#Cc1cncc(-c2ccc3c(=O)[nH]nc(CN)c3c2)c1 [Example 3-39, 4-(aminomethyl)-6-(5-(prop-1-yn-1-yl)pyridin-3-yl)phthalazin-1(2H)-one]
1600	27500	–	NCc1n[nH]c(=O)c2ccc(-c3cncc(F)c3)cc12 [Example 3-41, 4-(aminomethyl)-6-(5-fluoropyridin-3-yl)phthalazin-1(2H)-one]
200	3580	–	NCc1n[nH]c(=O)c2ccc(-c3cncc(Cl)c3)cc12 [Example 3-42, 4-(aminomethyl)-6-(5-chloropyridin-3-yl)phthalazin-1(2H)-one]
340	6500	–	NCc1n[nH]c(=O)c2ccc(-c3cncc(C(F)(F)F)c3)cc12 [Example 3-43, 4-(aminomethyl)-6-(5-(trifluoromethyl)pyridin-3-yl)phthalazin-1(2H)-one]
1200	19400	–	NCc1n[nH]c(=O)c2ccc(-c3cncc(O)c3)cc12 [Example 3-44, 4-(aminomethyl)-6-(5-hydroxypyridin-3-yl)phthalazin-1(2H)-one]
370	6810	–	COc1cncc(-c2ccc3c(=O)[nH]nc(CN)c3c2)c1 [Example 3-45, 4-(aminomethyl)-6-(5-methoxypyridin-3-yl)phthalazin-1(2H)-one]
570	7880	–	COCc1cncc(-c2ccc3c(=O)[nH]nc(CN)c3c2)c1 [Example 3-46, 4-(aminomethyl)-6-(5-(methoxymethyl)pyridin-3-yl)phthalazin-1(2H)-one]
56	2950	–	NCc1n[nH]c(=O)c2ccc(-c3cncc(CO)c3)cc12 [Example 3-47, 4-(aminomethyl)-6-(5-(hydroxymethyl)pyridin-3-yl)phthalazin-1(2H)-one]
280	7980	–	CS(=O)(=O)c1cncc(-c2ccc3c(=O)[nH]nc(CN)c3c2)c1 [Example 3-48, 4-(aminomethyl)-6-(5-(methylsulfonyl)pyridin-3-yl)phthalazin-1(2H)-one]
110	3850	–	CCOc1cncc(-c2ccc3c(=O)[nH]nc(CN)c3c2)c1 [Example 3-49, 4-(aminomethyl)-6-(5-ethoxypyridin-3-yl)phthalazin-1(2H)-one]
500	11100	–	NCc1n[nH]c(=O)c2ccc(-c3cncc(OC(F)F)c3)cc12 [Example 3-51, 4-(aminomethyl)-6-(5-(difluoromethoxy)pyridin-3-yl)phthalazin-1(2H)-one]
370	3000	–	CC(C)Oc1cncc(-c2ccc3c(=O)[nH]nc(CN)c3c2)c1 [Example 3-52, 4-(aminomethyl)-6-(5-isopropoxypyridin-3-yl)phthalazin-1(2H)-one]

IC50 [1] [nM]	IC50 [2] [nM]	IC50 [3] [nM]	Compound
28	1350	–	NCc1n[nH]c(=O)c2ccc(-c3cncc(OCC4CC4)c3)cc12 [Example 3-53, 4-(aminomethyl)-6-(5-(cyclopropylmethoxy)pyridin-3-yl)phthalazin-1(2H)-one]
64	1290	–	NCc1n[nH]c(=O)c2ccc(-c3cncc4ccccc34)cc12 [Example 3-54, 4-(aminomethyl)-6-(isoquinolin-4-yl)phthalazin-1(2H)-one]
83	1870	–	NCc1n[nH]c(=O)c2ccc(-c3cncc4[nH]ccc34)cc12 [Example 3-55, 4-(aminomethyl)-6-(1H-pyrrolo[2,3-c]pyridin-4-yl)phthalazin-1(2H)-one]
550	11500	–	Cc1c(Cl)cncc1-c1ccc2c(=O)[nH]nc(CN)c2c1 [Example 3-56, 4-(aminomethyl)-6-(5-chloro-4-methylpyridin-3-yl)phthalazin-1(2H)-one]
30000	–	–	NCc1n[nH]c(=O)c2ccc(-c3nncn3Cc3ccccc3)cc12 [Example 3-57, 4-(aminomethyl)-6-(4-benzyl-4H-1,2,4-triazol-3-yl)phthalazin-1(2H)-one]
510	8070	–	NCc1n[nH]c(=O)c2ccc(-c3cncc(N4CCOCC4)c3)cc12 [Example 3-58, 4-(aminomethyl)-6-(5-morpholinopyridin-3-yl)phthalazin-1(2H)-one]
8100	> 100000	–	Cc1ccccc1-c1ccc2c(=O)[nH]nc(CN)c2c1 [Example 3-60, 4-(aminomethyl)-6-(o-tolyl)phthalazin-1(2H)-one]
3.4	80	–	CC(C)c1c[nH]c2ncc(-c3ccc4c(=O)[nH]nc(CN)c4c3)cc12 [Example 3-61, 4-(aminomethyl)-6-(3-isopropyl-1H-pyrrolo[2,3-b]pyridin-5-yl)phthalazin-1(2H)-one]
45000	> 100000	–	NCc1n[nH]c(=O)c2ccc(-c3cccnn3)cc12 [Example 4-1, 4-(aminomethyl)-6-(pyridazin-3-yl)phthalazin-1(2H)-one]
490	13800	–	NCc1n[nH]c(=O)c2ccc(-c3cnsc3)cc12 [Example 4-2, 4-(aminomethyl)-6-(isothiazol-4-yl)phthalazin-1(2H)-one]
37	926	–	NCc1n[nH]c(=O)c2ccc(-c3cnc4ccccn34)cc12 [Example 4-3, 4-(aminomethyl)-6-(imidazo[1,2-a]pyridin-3-yl)phthalazin-1(2H)-one]
230	5910	–	Cc1ncc(-c2ccc3c(=O)[nH]nc(CN)c3c2)n1C [Example 4-4, 4-(aminomethyl)-6-(1,2-dimethyl-1H-imidazol-5-yl)phthalazin-1(2H)-one]
150	1730	–	Cc1c(-c2ccc3c(=O)[nH]nc(CN)c3c2)cncc1C1CC1 [Example 4-5, 4-(aminomethyl)-6-(5-cyclopropyl-4-methylpyridin-3-yl)phthalazin-1(2H)-one]
8400	> 100000	–	N#Cc1ncccc1-c1ccc2c(=O)[nH]nc(CN)c2c1 [Example 4-7, 3-(4-(aminomethyl)-1-oxo-1,2-dihydrophthalazin-6-yl)picolinonitrile]
440	> 100000	–	Cn1ncc(-c2cncc(-c3ccc4c(=O)[nH]nc(CN)c4c3)c2)c1C#N [Example 4-8, 4-(5-(4-(aminomethyl)-1-oxo-1,2-dihydrophthalazin-6-yl)pyridin-3-yl)-1-methyl-1H-pyrazole-5-carbonitrile]
590	16000	–	NCc1n[nH]c(=O)c2ccc(-c3cncc(OC(F)(F)F)c3)cc12 [Example 4-9, 4-(aminomethyl)-6-(5-(trifluoromethoxy)pyridin-3-yl)phthalazin-1(2H)-one]
1000	> 100000	–	N#Cc1ccn(-c2cncc(-c3ccc4c(=O)[nH]nc(CN)c4c3)c2)n1 [Example 4-10, 1-(5-(4-(aminomethyl)-1-oxo-1,2-dihydrophthalazin-6-yl)pyridin-3-yl)-1H-pyrazole-3-carbonitrile]
110	2400	–	CN1CCn2ncc(-c3ccc4c(=O)[nH]nc(CN)c4c3)c2C1 [Example 4-11, 4-(aminomethyl)-6-(5-methyl-4,5,6,7-tetrahydropyrazolo[1,5-a]pyrazin-3-yl)phthalazin-1(2H)-one]
7400	> 100000	–	NCc1n[nH]c(=O)c2ccc(-c3cncc4nccn34)cc12 [Example 4-12, 4-(aminomethyl)-6-(imidazo[1,2-a]pyrazin-5-yl)phthalazin-1(2H)-one]
210	2560	–	NCc1n[nH]c(=O)c2ccc(-c3cncn4cccc34)cc12 [Example 4-13, 4-(aminomethyl)-6-(pyrrolo[1,2-c]pyrimidin-4-yl)phthalazin-1(2H)-one]
7900	> 100000	–	Cc1nc2ccc(Cl)nn2c1-c1ccc2c(=O)[nH]nc(CN)c2c1 [Example 4-14, 4-(aminomethyl)-6-(6-chloro-2-methylimidazo[1,2-b]pyridazin-3-yl)phthalazin-1(2H)-one]
